Structures can show the parent of a compound that is named as a salt.
Row | melting point | Compound
1 | 124 to 125 °C (dec.) | CCCNC(=O)c1ccc(-c2cc3ccccc3c(N3CCN(CC)CC3)n2)cc1F (as salt: hydrochloride) [Example 384, 1-(4-Ethylpiperazin-1-yl)-3-[4-(N-Propylcarbamoyl)-3-Fluorophenyl]Isoquinoline Dihydrochloride]
2 | 213 to 215 °C (dec.) | CCN1CCN(c2nc(-c3ccc(CCO)c(F)c3)cc3ccccc23)CC1 (as salt: hydrochloride) [Example 385, 1-(4-Ethylpiperazin-1-yl)-3-[3-Fluoro-4-(2-Hydroxyethyl)Phenyl]Isoquinoline Dihydrochloride]
3 | 132 to 133 °C | CCN1CCN(c2nc(-c3ccc(C(O)CO)cc3)cc3ccccc23)CC1 (centres unmarked) (as salt: hydrochloride) [Example 387, 1-(4-Ethylpiperazin-1-yl)-3-[4-(1,2-Dihydroxyethyl)Phenyl]Isoquinoline Dihydrochloride]
4 | 205 to 206 °C | CCN1CCN(c2nc(-c3ccc(CCC(C)(C)O)cc3)cc3ccccc23)CC1 (as salt: hydrochloride) [Example 388, 1-(4-Ethylpiperazin-1-yl)-3-[4-(3-Hydroxy-3-Methylbutyl)Phenyl]Isoquinoline Dihydrochloride]
5 | 150.5 to 151.5 °C | CCN1CCN(c2nc(-c3ccc(C(O)C(C)(C)CO)cc3)cc3ccccc23)CC1 (centres unmarked) (as salt: hydrochloride) [Example 391, 1-(4-Ethylpiperazin-1-yl)-3-[4-(1,3-Dihydroxy-2,2-Dimethylpropyl)Phenyl]Isoquinoline Dihydrochloride]
6 | 163 to 166 °C (dec.) | CCN1CCN(c2nc(-c3ccc(C4COCCO4)cc3)cc3ccccc23)CC1 (centres unmarked) (as salt: hydrochloride) [Example 395, 1-(4-Ethylpiperazin-1-yl)-3-[4-(1,4-Dioxan-2-yl)Phenyl]Isoquinoline Dihydrochloride]
7 | 129 to 130 °C | CCN1CCN(c2nc(-c3ccc(C4CCCO4)cc3)cc3ccccc23)CC1 (centres unmarked) (as salt: hydrochloride) [Example 396, 1-(4-Ethylpiperazin-1-yl)-3-[4-(Tetrahydrofuran-2-yl)Phenyl]Isoquinoline Dihydrochloride]
8 | 152 to 153 °C | CCN1CCN(c2nc(-c3ccc([C@H]4CC[C@@H](O)CC4)cc3)cc3ccccc23)CC1 (as salt: hydrochloride) [Example 397, 1-(4-Ethylpiperazin-1-yl)-3-[4-(cis-4-Hydroxycyclohexyl)Phenyl]Isoquinoline Dihydrochloride]
9 | 157 to 158 °C (dec.) | CCN1CCN(c2nc(-c3ccc([C@H]4CC[C@H](O)CC4)cc3)cc3ccccc23)CC1 (as salt: hydrochloride) [Example 398, 1-(4-Ethylpiperazin-1-yl)-3-[4-(trans-4-Hydroxycyclohexyl)Phenyl]Isoquinoline Dihydrochloride]
10 | 182 to 184 °C (dec.) | CCN1CCN(c2nc(-c3ccc(CC4CCOCC4)cc3)cc3ccccc23)CC1 (as salt: hydrochloride) [Example 399, 1-(4-Ethylpiperazin-1-yl)-3-[4-(tetrahydropyran-4-yl)Methylphenyl]Isoquinoline Dihydrochloride]
11 | 112 to 114 °C | CCN1CCN(c2nc(-c3ccc(OC[C@@H](C)O)cc3)cc3ccccc23)CC1 (as salt: hydrochloride) [Example 403, 1-(4-ethylpiperazin-1-yl)-3-[4-(2-hydroxypropoxy)phenyl]isoquinoline Dihydrochloride]
12 | 128 to 129 °C | CCN1CCN(c2nc(-c3ccc(O[C@@H](C)CO)cc3)cc3ccccc23)CC1 (as salt: hydrochloride) [Example 404, 1-(4-ethylpiperazin-1-yl)-3-[4-(2-hydroxy-1-methylethoxy)phenyl]isoquinoline Dihydrochloride]
13 | 157 to 158 °C | CCN1CCN(c2nc(-c3ccc(C(O)(c4nccs4)c4nccs4)cc3)cc3ccccc23)CC1 (as salt: hydrochloride) [Example 411, 1-(4-ethylpiperazin-1-yl)-3-{4-[bis(1,3-thiazol-2-yl)hydroxymethyl]phenyl}isoquinoline]
14 | 233 °C (dec.) | CCN1CCN(c2nc(-c3ccc4c(c3)CCC4=O)cc3ccccc23)CC1 (as salt: hydrochloride) [Example 414, 1-(4-ethylpiperazin-1-yl)-3-(1-indanon-5-yl)isoquinoline]
15 | 101 to 102 °C | CCN1CCN(c2nc(COc3ccc(OC)cc3)cc3ccccc23)CC1 (as salt: hydrochloride) [Example 424, 1-(4-ethylpiperazin-1-yl)-3-(4-methoxyphenoxymethyl)isoquinoline Hydrochloride]
16 | 143 to 144 °C | CCN1CCN(c2nc(-c3ccc(OC4CCCCC4O)cc3)cc3ccccc23)CC1 (centres unmarked) (as salt: hydrochloride) [Example 426, 1-(4-ethylpiperazin-1-yl)-3-[4-(2-hydroxycyclohexyloxy)phenyl]isoquinoline Hydrochloride]
17 | 224.5 to 226 °C (dec.) | CCN1CCN(c2nc(-c3ccc(OC)cc3)nc3ccccc23)CC1 (as salt: hydrochloride) [Example 427, 4-(4-ethylpiperazin-1-yl)-2-(4-methoxyphenyl)quinazoline Dihydrochloride]

The next lines start with the compound.

Row | Compound | melting point
18 | CCN1CCN(c2nc(-c3ccc(OCCOC)c(F)c3)cc3ccccc23)CC1 (as salt: hydrochloride) [Example 367, 1-(4-ethylpiperazin-1-yl)-3-(3-fluoro-4-methoxyethoxyphenyl)isoquinoline dihydrochloride] | 112.5 to 114 °C
19 | CCN1CCN(c2nc(-c3cc(F)c(OCCOC)c(F)c3)cc3ccccc23)CC1 (as salt: hydrochloride) [Example 368, 1-(4-ethylpiperazin-1-yl)-3-(3,5-difluoro-4-methoxyethoxyphenyl)isoquinoline dihydrochloride] | 110 to 112 °C
20 | CCN1CCN(c2nc(-c3ccc(OCCO)c(F)c3)cc3ccccc23)CC1 (as salt: hydrochloride) [Example 369, 1-(4-ethylpiperazin-1-yl)-3-[3-fluoro-4-(2-hydroxyethoxy)phenyl]isoquinoline dihydrochloride] | 119 to 120 °C
21 | CCN1CCN(c2nc(-c3cc(F)c(OCCO)c(F)c3)cc3ccccc23)CC1 (as salt: hydrochloride) [Example 370, 1-(4-ethylpiperazin-1-yl)-3-[3,5-difluoro-4-(2-hydroxyethoxy)phenyl]isoquinoline] | 112.5 to 114 °C
22 | CCN1CCN(c2nc(-c3cc(F)c(OCCF)c(F)c3)cc3ccccc23)CC1 (as salt: hydrochloride) [Example 371, 1-(4-ethylpiperazin-1-yl)-3-[3,5-difluoro-4-(2-fluoroethoxy)phenyl]isoquinoline dihydrochloride] | 105 to 105.5 °C
23 | CCN1CCN(c2nc(-c3ccc(CC(C)=O)cc3)cc3ccccc23)CC1 (as salt: hydrochloride) [Example 375, 1-(4-ethylpiperazin-1-yl)-3-[4-(2-oxopropyl)phenyl]isoquinoline dihydrochloride] | 125 to 126 °C
24 | CCN1CCN(c2nc(-c3ccc4c(c3)CC(CO)C4)cc3ccccc23)CC1 (centres unmarked) (as salt: hydrochloride) [Example 393, 1-(4-Ethylpiperazin-1-yl)-3-(2-Hydroxymethylindan-5-yl)Isoquinoline Dihydrochloride] | 136.5 to 138 °C
25 | CCN1CCN(c2nc(-c3ccc(CO)c(CO)c3)cc3ccccc23)CC1 (as salt: hydrochloride) [Example 394, 1-(4-Ethylpiperazin-1-yl)-3-[(3,4-Dihydroxymethyl)Phenyl]Isoquinoline Dihydrochloride] | 130.5 to 132 °C (dec.)
26 | CCN1CCN(c2nc(-c3ccnc(OC)c3)cc3ccccc23)CC1 (as salt: hydrochloride) [Example 405, 1-(4-ethylpiperazin-1-yl)-3-(2-methoxypyridin-4-yl)isoquinoline] | 174 to 176 °C
27 | CCN1CCN(c2nc(-c3ccnc(OCCOC)c3)cc3ccccc23)CC1 (as salt: hydrochloride) [Example 407, 1-(4-ethylpiperazin-1-yl)-3-[2-(2-methoxyethoxy)pyridin-4-yl]isoquinoline] | 139 to 140 °C
28 | CCN1CCN(c2nc(-c3ccc(C(N)=O)cc3)cc3ccccc23)CC1 (as salt: hydrochloride) [Example 408, 1-(4-ethylpiperazin-1-yl)-3-(4-carbamoylphenyl)isoquinoline] | 197 to 199 °C
29 | CCN1CCN(c2nc(-c3ccc(C(O)C4CCCCC4)cc3)cc3ccccc23)CC1 (centres unmarked) (as salt: hydrochloride) [Example 409, 1-(4-ethylpiperazin-1-yl)-3-[4-(cyclohexylhydroxymethyl)phenyl]isoquinoline] | 153 to 155 °C
30 | CCN1CCN(c2nc(-c3ccc(CCC(C)(C)O)c(F)c3)cc3ccccc23)CC1 (as salt: hydrochloride) [Example 416, 1-(4-ethylpiperazin-1-yl)-3-[4-(3-hydroxy-3-methylbutyl)-3-fluorophenyl]isoquinoline] | 206 to 207 °C
31 | CCN1CCN(c2nc(-c3ccc(OCCO)c(C#N)c3)cc3ccccc23)CC1 (as salt: hydrochloride) [Example 417, 1-(4-ethylpiperazin-1-yl)-3-[3-cyano-4-(2-hydroxyethoxy)phenyl]isoquinoline] | 162 to 164 °C
32 | CCN1CCN(c2nc(-c3cccc(CCCO)c3)cc3ccccc23)CC1 (as salt: hydrochloride) [Example 418, 1-(4-ethylpiperazin-1-yl)-3-[3-(3-hydroxypropyl)phenyl]isoquinoline] | 101 to 103 °C
33 | CCN1CCN(c2nc(Cc3ccccc3)cc3ccccc23)CC1 (as salt: hydrochloride) [Example 419, 1-(4-ethylpiperazin-1-yl)-3-benzylisoquinoline] | 118 to 119 °C
34 | CCN1CCN(c2nc(NC(=O)c3ccccc3)cc3ccccc23)CC1 (as salt: hydrochloride) [Example 421, 3-benzamide-1-(4-ethylpiperazin-1-yl)isoquinoline] | 160 to 162 °C
35 | CCN1CCN(c2nc(-c3ccc(OCCO)cc3OC)cc3ccccc23)CC1 (as salt: hydrochloride) [Example 425, 1-(4-ethylpiperazin-1-yl)-3-[4-(2-hydroxyethoxy)-2-methoxyphenyl]isoquinoline] | 140 to 142 °C

Reference: patent publication US6875761B2 (Eisai Co., Ltd., priority 1997, dated 2005)
